Test [1] deals with peripheral blood mononuclear cell (PBMC). Put plainly: Peripheral blood mononuclear cell assay (cytokine levels). The class given is cell-based. As to the method:
Selected compounds were tested in an in vitro peripheral blood mononuclear cell (PBMC) assay. […] Serially diluted tested compounds were added to wells in 50 μl of cultivation medium and cell were incubated with compounds for 1 h at 37° C. with 5% CO2. Plates with cells were then spun 500 g for 5 minutes and medium was removed. Cells were washed twice with the cell culture medium by the use of centrifugation and gently resuspended in 100 μl medium without compounds. After 15 hour incubation at 37° C. with 5% CO2, the cell culture medium was collected and the levels of interferon-alpha (INF-α), interferon-gamma (INF-γ) and tumor necrosis factor-alpha (TNF-α) were determined with ProcartaPlex Assays (ThermoFisher, Waltham, USA) and MAGPIX System (Merck KGaA, Darmstadt, Germany). […] Values reported are an average of runs from one to four donors.

Test [2] has as its target T1, human wild type STING (WT STING) (Homo sapiens, UniProt Q86WV6, H232R).
T1 construct: host or cells: 293T cells (ATCC CRL-3216), stably double transfected with pUNO1-hSTING-WT and pGL64.27-4×ISRE
Put plainly: 293T WT STING standard reporter assay. The class given is cell-based. The note with it: no digitonin, 7 hours, ISRE firefly luciferase. The text has this:
(§1) Two complementary oligonucleotides of the sequence […] […] […] […] […] The oligonucleotides were mixed in equal molar amounts, hybridized, and cleaved by restriction endonucleases HindIII (cat. #. R0104S, NEB, Ipswich, USA) and BglII (cat. #R0144S, NEB, Ipswich, USA). Ultimately, they were ligated into plasmid pGL4.27 (cat. #E6651, Promega, Madison, USA) linearized with the same enzymes. As result the sequence with four ISRE sites was placed upstream of the minimum promoter of firefly luciferase reporter gene.
(§2) After 5 minutes incubation at room temperature (RT), 250 μL of the mixture was added dropwise to the cells in one well. Cells were incubated 36 hours at 37° C. with 5% CO2, and then detached with 0.05% Trypsin and 0.22 g/L EDTA (both cat. #L0941, Biowest, Riverside, USA).
(§3) Transfected cells were seeded onto poly-D-lysine coated six well plates at density 50,000 cells per 1 cm^2 in DMEM medium with high glucose containing 10% heat inactivated FBS, 30 μg/mL blasticidin (cat. #ant-b1-05, InvivoGen, San Diego, USA), 0.06 mg/ml Penicillin G and 0.1 mg/ml Streptomycin Sulfate (both cat. #. L0018, Biowest, Riverside, USA). The medium was replenished every 3-4 days until visible colonies of cells resistant to blasticidin were formed.
(§4) Blasticidin resistant cells stably expressing WT STING were further transfected with pGL64.27-4×ISRE plasmid following the same procedure as described above. […] Homogeneous culture of stably double transfected cells was prepared by limiting dilution of cells in 96 well plates and wells with cells were selected that originated from a single cell.
The medium was removed the next day and three-fold serial dilutions of compounds in 100 μl medium were added to the cells. The plates were incubated for 7 hours at 37° C. with 5% CO2. Next 50 μl of the medium was removed from wells, and 30 μl of ONE-Glo™ Luciferase Assay System reagent (cat. #E6120, Promega, Madison, USA) was added to each well. Luminescence was read on Synergy H1 (Biotek, Winooski, USA).
(In general: A reporter such as luciferase makes a cellular process visible.)

The target of test [3] is T1, human wild type STING (WT STING). The test is described as follows: Digitonin assay using 293T wtSTING-FL reporter cells. The class given is cell-based. Conditions: 293T wtSTING-FL cells, digitonin buffer 30 minutes, then 5 hours; ISRE firefly luciferase.
Excerpt: as §1, §2, §3, §4
The medium was removed next day and three fold serial dilutions of compounds in Digitonin buffer containing 50 mmol·l^−1 HEPES (cat. #H3375, Sigma Aldrich, Czech Republic) pH 7.0, 100 mmol·l^−1 KCl, 3 mmol·l^−1 MgCl2, 0.1 mmol·l^−1 DTT (cat. #D0632, Sigma Aldrich, Czech Republic), 85 mmol·l^−1 Sucrose (cat. #S7903, Sigma Aldrich, Czech Republic), 0.2% BSA (cat. #A2153, Sigma Aldrich, Czech Republic), 1 mmol·l^−1 ATP (cat. #A1852, Sigma Aldrich, Czech Republic), 0.1 mmol·l^−1 GTP (cat. #G8877, Sigma Aldrich, Czech Republic), and 10 μg/mL Digitonin A (cat. #D141, Sigma Aldrich, Czech Republic) were added to the cells. The buffer was removed after 30 minutes incubation at 37° C. with 5% C02, the cells were washed once with 100 μl of cultivation medium, and 100 μl of medium was added to each well. The plates with cells were incubated for 5 hours at 37° C. with 5% CO2, 50 μl of the medium was removed and 30 μl of ONE-Glo™ Luciferase Assay System reagent (cat. #E6120, Promega, Madison, USA) was added to each well. Luminesce was read on Synergy H1 (Biotek, Winooski, USA).

A further test addresses T2, AQ STING (G230A-R293Q) (Homo sapiens, UniProt Q86WV6, G230A/H232R/R293Q).
T2 construct: 8xHis (N, cleaved yes); SUMO (N, cleaved yes); made in house
The test is described as follows: Differential Scanning Fluorimetry with AQ STING. The note with it: thermal shift vs apoprotein; 150 μM CDN; truncated AQ STING 0.1 mg/ml. The class given is binding. On the procedure:
Purified PCR products were cleaved with restriction enzymes BamHI (cat. #R0136S, NEB, Ipswich, USA) and NotI (cat. #R0189S, NEB, Ipswich, USA) and cloned into the pSUMO vector linearized with the identical enzymes.
DNase I (cat. #D5025, Sigma Aldrich, Czech Republic) and RNase A (cat. #R6513, Sigma Aldrich, Czech Republic) were added (final concentration 50 μg/ml) together with MgCl2 (final concentration 5 mmol·l^−1) to the homogenate and bacteria were lysed using French Press G-M™ High-Pressure Cell Press Homogenizer (1500 psi, 3 cycles). […] The resin was poured into a chromatography column, washed with 50 ml buffer A (50 mmol·l^−1 TrisCl (pH 8.0), 800 mmol·l^−1 NaCl, 3 mmol·l^−1 β-mercaptoethanol; 10% glycerol; 20 mmol·l^−1 imidazole) and 8-His-SUMO tagged STING proteins were eluted with 15 ml buffer A containing 300 mmol·l^−1 imidazole. […] Proteins were concentrated with Amicon® Ultra-15 10 K device (cat. #UFC901008, Merck Millipore, Billerica, USA) and flash frozen in liquid N2.
20 μL solutions of the reaction mixtures were pipetted in triplicates into 96 well optical reaction plates and thermal denaturation of samples were performed on real time PCR cycler (LightCycler® 480 Instrument II—Roche, Basel, Switzerland). The first derivative of the thermal denaturation curves was performed to calculate denaturing temperatures of STING-CDN complexes and STING apoproteins. The thermal shift for each CDN was calculated by subtracting the average denaturing temperature of STING apoprotein from the average denaturing temperature of STING CDN complex.

Setting [4] is: 1 h with compound, wash, 15 hour incubation, average of one to four donors, read-out: PBMC EC50 IFN-α.
The mark [5] stands for this setting: 1 h with compound, wash, 15 hour incubation, average of one to four donors, read-out: PBMC EC50 TNF-α.
The mark [6] stands for this setting: 293T wtSTING-FL cells, read-out: 293T WT STING EC50.
[7] abbreviates: 1 h with compound, wash, 15 hour incubation, average of one to four donors, read-out: PBMC EC50 IFN-γ.
[8] abbreviates: read-out: PBMC EC50 IFN-α, 1 h with compound, wash, 15 hour incubation, average of one to four donors.
Where [9] appears, read: read-out: PBMC EC50 IFN-γ, 1 h with compound, wash, 15 hour incubation, average of one to four donors.
[10] abbreviates: 293T WT STING EC50, 293T wtSTING-FL cells.

Read-outs that look alike come from different tables or passages of the source.

T1 sequence (Q86WV6 whole entry H232R): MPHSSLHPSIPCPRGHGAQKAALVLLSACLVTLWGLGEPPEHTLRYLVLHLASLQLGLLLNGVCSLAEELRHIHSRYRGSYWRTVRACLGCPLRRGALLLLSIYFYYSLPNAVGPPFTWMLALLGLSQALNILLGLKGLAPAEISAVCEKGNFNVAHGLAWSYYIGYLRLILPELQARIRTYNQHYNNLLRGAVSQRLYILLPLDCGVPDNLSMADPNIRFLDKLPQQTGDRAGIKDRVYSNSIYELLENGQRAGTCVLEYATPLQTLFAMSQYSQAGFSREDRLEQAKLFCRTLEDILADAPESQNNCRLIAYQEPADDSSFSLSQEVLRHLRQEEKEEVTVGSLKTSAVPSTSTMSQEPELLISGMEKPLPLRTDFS
T2 sequence (Q86WV6 140-343 G230A/H232R/R293Q): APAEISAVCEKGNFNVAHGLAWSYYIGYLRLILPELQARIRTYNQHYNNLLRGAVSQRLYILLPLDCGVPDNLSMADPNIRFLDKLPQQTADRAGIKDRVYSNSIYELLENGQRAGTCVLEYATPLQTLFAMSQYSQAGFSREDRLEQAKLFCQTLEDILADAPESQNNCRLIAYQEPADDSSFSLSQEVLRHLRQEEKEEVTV

Broadly, the EC50 is the midpoint of the concentration-response curve. Consider `CCCCCCCC(=O)OCOP1(=O)CO[C@H]2[C@@H](F)[C@H](n3cnc4c(N)ncnc43)O[C@@H]2COP(=O)(OCOC(=O)CCCCCCC)O[C@H]2[C@@H](F)[C@H](n3cnc4c(N)ncnc43)O[C@@H]2CO1` (mixture of isomers) [Compound 46b, {[(1R,6R,8R,9R,10R,16R,18R,19R)-8,18-bis(6-amino-9H-purin-9-yl)-9,19-difluoro-13-[(octanoyloxy)methoxy]-3,13-dioxo-2,4,7,11,14,17-hexaoxa-3λ^5,13λ^5-diphosphatricyclo[14.3.0.0^6,^10]nonadecan-3-yl]oxy}methyl octanoate], for which the EC50 in test [1] (setting [4]) turned out to be 4 nM; in test [1] (setting [5]), 1 nM; in test [2] (setting [6]) it was 2 nM.
Take `CCCCCCCC(=O)OCOP1(=O)CO[C@H]2[C@@H](F)[C@H](n3cnc4c(N)ncnc43)O[C@@H]2COP(=O)(OCOC(=O)CCCCCCC)O[C@H]2[C@@H](F)[C@H](n3cnc4c(N)ncnc43)O[C@@H]2CO1` (single isomer, unassigned) [Compound 46c]: the EC50 in test [1] (setting [4]) is 20 nM; in test [1] (setting [5]), 10 nM; in test [2] (setting [6]) it was 1 nM.
`CC(C)OC(=O)OCOP1(=O)CO[C@H]2[C@@H](F)[C@H](n3cnc4c(N)ncnc43)O[C@@H]2COP(=O)(OCOC(=O)OC(C)C)O[C@H]2[C@@H](F)[C@H](n3cnc4c(N)ncnc43)O[C@@H]2CO1` (single isomer, unassigned) [Compound 42c]: the EC50 in test [1] (setting [4]) is 600 nM; in test [1] (setting [7]) it was 300 nM; in test [1] (setting [5]) it was 600 nM; in test [2] (setting [6]), 50 nM.
As to `CCCCCCCCCCCC(=O)OCSP1(=O)CO[C@H]2[C@@H](F)[C@H](n3cnc4c(N)ncnc43)O[C@@H]2COP(=O)(SCOC(=O)CCCCCCCCCCC)O[C@H]2[C@@H](F)[C@H](n3cnc4c(N)ncnc43)O[C@@H]2CO1` (single isomer, unassigned) [Compound 43b], the EC50 in test [1] (setting [8]) worked out at 400 nM; in test [1] (setting [9]) it was 300 nM; in test [1] (read-out: PBMC EC50 TNF-α, PBMC, 1 h with compound, wash, 15 hour incubation, average of one to four donors), 200 nM; in test [2] (setting [10]) it was 30 nM.
As to `CC1(C(=O)OCOP2(=O)CO[C@H]3[C@@H](F)[C@H](n4cnc5c(N)ncnc54)O[C@@H]3COP(=O)(OCOC(=O)C3(C)CCCCC3)O[C@H]3[C@@H](F)[C@H](n4cnc5c(N)ncnc54)O[C@@H]3CO2)CCCCC1` (single isomer, unassigned) [Compound 45c], the EC50 in test [1] (setting [4]) was 300 nM; in test [1] (setting [7]) it was 200 nM; in test [1] (setting [5]) it was 400 nM; in test [2] (setting [6]) it was 70 nM.
The matching figures for `CCC(C)(C)C(=O)OCOP1(=O)CO[C@H]2[C@@H](F)[C@H](n3cnc4c(N)ncnc43)O[C@@H]2COP(=O)(OCOC(=O)C(C)(C)CC)O[C@H]2[C@@H](F)[C@H](n3cnc4c(N)ncnc43)O[C@@H]2CO1` (mixture of isomers) [Compound 44b, {[(1R,6R,8R,9R,10R,16R,18R,19R)-8,18-bis(6-amino-9H-purin-9-yl)-13-{[(2,2-dimethylbutanoyl)oxy]methoxy}-9,19-difluoro-3,13-dioxo-2,4,7,11,14,17-hexaoxa-3λ^5,13λ^5-diphosphatricyclo[14.3.0.0^6,^10]nonadecan-3-yl]oxy}methyl 2,2-dimethylbutanoate]: 200 nM, 200 nM, 200 nM and 10 nM.
In the case of `CC(C)OC(=O)OCOP1(=O)CO[C@H]2[C@@H](F)[C@H](n3cnc4c(N)ncnc43)O[C@@H]2COP(=O)(OCOC(=O)OC(C)C)O[C@H]2[C@@H](F)[C@H](n3cnc4c(N)ncnc43)O[C@@H]2CO1` (mixture of isomers) [Compound 42b, {[(1R,6R,8R,9R,10R,16R,18R,19R)-8,18-bis(6-amino-9H-purin-9-yl)-9,19-difluoro-3,13-dioxo-13-({[(propan-2-yloxy)carbonyl]oxy}methoxy)-2,4,7,11,14,17-hexaoxa-3λ^5,13λ^5-diphosphatricyclo[14.3.0.0^6,^10]nonadecan-3-yl]oxy}methyl propan-2-yl carbonate], the EC50 in test [1] (setting [4]) was 2300 nM; in test [1] (setting [7]) it was 1300 nM; in test [1] (setting [5]), 1100 nM; in test [2] (setting [6]), 250 nM.
For `Nc1nc2c(ncn2[C@@H]2O[C@@H]3COP(=O)(O)O[C@@H]4[C@H](O)[C@@H](COP(=O)(O)O[C@@H]2[C@@H]3O)O[C@H]4n2cnc3c(N)ncnc32)c(=O)[nH]1` [2′2′-cGAMP, reference compound], the EC50 turned out to be 30 nM in test [3] and 10200 nM in test [2] (setting [6]). Moreover, the “DSF ΔTm AQ STING” value at AQ STING (G230A-R293Q) is 19.4 °C.
With `CCCCCCCCCCCC(=O)OCSP1(=O)CO[C@H]2[C@@H](F)[C@H](n3cnc4c(N)ncnc43)O[C@@H]2COP(=O)(SCOC(=O)CCCCCCCCCCC)O[C@H]2[C@@H](F)[C@H](n3cnc4c(N)ncnc43)O[C@@H]2CO1` (single isomer, unassigned) [Compound 43c], the EC50 in test [1] (setting [8]) is 900 nM; in test [1] (setting [9]), 100 nM; in test [1] (read-out: PBMC EC50 TNF-α, 1 h with compound, wash, 15 hour incubation, average of one to four donors) it was 300 nM; in test [2] (setting [10]) it was 60 nM.

Source of the values: US20220143061A1, “3'3'-CYCLIC DINUCLEOTIDES AND PRODRUGS THEREOF” (INSTITUTE OF ORGANIC CHEMISTRY AND BIOCHEMISTRY ASCR, V.V.I., priority 2019, published 2022).
